This test concerns the target BaIMPDHΔL. It is filed as biochemical, Bacillus anthracis. Conditions: read-out: k−7/k7, equilibrium dissociation constant of NAD+ substrate inhibition.

As to `NC(=O)c1ccc[n+]([C@@H]2O[C@H](COP(=O)([O-])OP(=O)(O)OC[C@H]3O[C@@H](n4cnc5c(N)ncnc54)[C@H](O)[C@@H]3O)[C@@H](O)[C@H]2O)c1` [NAD^+], the Kd is 5.5 mM.

Values taken from publication PMC5524190 (Biochemistry, 2016).
